Columns and labels:
female NZB/WF1 SLE mice = assay: Changes of proteinuria in SLE mouse model (Bio-Rad protein assay of urine); type: in vivo; settings: for proteinuria level: after 6 weeks of experiment, oral once per day (cyclohexenone compounds 50 mg/kg; prednisolone 1.25 mg/kg), negative control 89.16 vs. 246 mg/dl
Experimental: (§1) Female NZB/WF1 mice spontaneously develop human SLE-like syndromes, such as generation of antinuclear autoantibodies, proteinuria, and renal toxicity to cause death. The disease is more severe in female mice than in male mice; the morbidity of female mice is also higher than that of male mice. Therefore, female NZB/WF1 mice were used for screening anti-SLE drugs in this study.
(§2) Thirty female NZB/WF1 mice (purchased from Jackson Lab, USA) between 12-24 weeks of age were analyzed biweekly to determine proteinuria levels, monthly to assess the titers of antinuclear autoantibody (ANA). The increased titers of ANA and positive response implicated that female NZB/WF1 mice were going to develop SLE and were ready for grouping. At 22 weeks of age, the animals showing the abovementioned syndromes were randomly divided into 3 groups (10 mice per group, water was administered to negative control group, steroid was given to positive control group, and cyclohexenone compounds of Antrodia camphorata was administered to experiment group), and the start time for the experiment was set as week zero. In addition, ten B6 mice (purchased from National Laboratory Animal Center, Taiwan) without SLE syndrome were normal mice served as blank group. Table 1 Treatment of animal groups
The blank group in Table 1 was B6 mice of no SLE syndrome, which received no treatment and normal diet for natural growth. NZB/WF1 female mice that were able to express SLE syndromes were served in negative control and positive control groups. Mice in the former group received normal water; in the latter were orally medicated with 1.25 mg/kg of prednisolone, the SLE drug. Mice in the experiment group were orally medicated with 50 mg/kg of cyclohexenone compounds from Example 1. […]
SLE patients develop renal inflammation and damage, which cause leakage of protein from kidney into the fluid. […] Ten µl of urine was assayed with Bio-Rad Protein Assay Dye Reagent Concentrate (Bio-Rad Laboratories, USA) and read under […] with an ELISA analyzer to determine the protein concentration with a standard curve.

[1] = system: anti-dsDNA antinuclear antibodies in female NZB/WF1 SLE mice; assay: Titers of anti-dsDNA antinuclear antibodies in plasma of SLE mouse model (Mouse Anti-dsDNA IgG ELISA); type: in vivo; settings: for titer of anti-dsDNA antinuclear antibodies decreased to: week 8, oral once per day (cyclohexenone compounds 50 mg/kg; prednisolone 1.25 mg/kg), reference of the percentage not stated
Experimental: as §1, §2
The blank group in Table 1 was B6 mice of no SLE syndrome, which received no treatment and normal diet for natural growth. NZB/WF1 female mice that were able to express SLE syndromes were served in negative control and positive control groups. Mice in the former group received normal water; in the latter were orally medicated with 1.25 mg/kg of prednisolone, the SLE drug. Mice in the experiment group were orally medicated with 50 mg/kg of cyclohexenone compounds from Example 1. The mice were fed with the abovementioned substances once per day starting at 23 weeks of age, and this period of time was referred to as the first week of this experiment. […]
The titers of dsDNA antinuclear antibodies were determined in this study to assess the effects of cyclohexenone compounds from Antrodia camphorata on SLE mice. […]

COC1=C(OC)C(O)C(CC=C(C)CCC=C(C)CCC=C(C)C)C(C)C1=O (stereo not drawn) [4-hydroxy-2,3-dimethoxy-6-methyl-5(3,7,11-trimethyl-dodeca-2,6,10-trienyl)-cyclohex-2-enone]
proteinuria level (female NZB/WF1 SLE mice): 118.2 mg/dL | increase in proteinuria level than that before experiment (female NZB/WF1 SLE mice; after 6 weeks, oral 50 mg/kg once per day, negative control 2.76-fold): 1.3 fold | titers of anti-dsDNA antinuclear antibodies compared with negative group ([1]; during 8 weeks of experiment, oral 50 mg/kg once per day): significantly lower titers | titer of anti-dsDNA antinuclear antibodies decreased to [1]: 34%

C[C@]12C=CC(=O)C=C1CC[C@@H]1[C@@H]2[C@@H](O)C[C@@]2(C)[C@H]1CC[C@]2(O)C(=O)CO [prednisolone, reference compound]
proteinuria level (female NZB/WF1 SLE mice): 32.6 mg/dL | titer of anti-dsDNA antinuclear antibodies decreased to [1]: around 50%

Source: patent EP2221291B1, “CYCLOHEXENONE COMPOUNDS FROM ANTRODIA CAMPHORATA AND PHARMACEUTICAL COMPOSITIONS THEREOF USEFUL FOR TREATING AUTOIMMUNE DISEASES” (Golden Biotechnology Corporation, priority 2007, dated 2009)
